This passage reports DC50 and Dmax results from patent publication US20230265116A1, “DEGRADATION OF (EGFR) BY CONJUGATION OF EGFR INHIBITORS WITH E3 LIGASE LIGAND AND METHODS OF USE” (BEIGENE, LTD., priority 2020, published 2023).

Structures are written as SMILES.

For the test, the target named is T1, EGFR (HCC827 cells) (Homo sapiens, UniProt P00533, DEL746-750).
T1 construct: endogenous in cells; host or cells: HCC827
The test can be described thus: EGFR degradation HTRF assay, HCC827 cells. It is filed as cell-based. As to conditions: HCC827, 16h treatment; for Dmax: maximum percentage of degradation. The method, then: BaF3 WT(wild type), BaF3-LTC(L858R/T790M/C797S) and BaF3-DTC(Del19/T790M/C797S) cells are treated with compounds diluted in 0.2% DMSO cell culture medium and incubate for 16h, 37° C., 5% CO2, H1975-#36, H1975-#28, H1975-#23 and HCC827 cells are treated with compounds diluted in 0.2% DMSO cell culture medium on day 2, incubate for 16h, 37° C., 5% CO2.the final concentriation of compounds in all assay is start with 10 uM, 5-fold dilution, total 8 doses were included.
After 16h treatment, add HTRF lysis buffer to each well; seal the plate and incubate 1 hour at room temperature on a plate shaker; Once the cells are lysed, 16 μL of cell lysate are transferred to a PE 384-well HTRF detection plate; 4 μL of pre-mixed HTRF antibodies are added to each well; Cover the plate with a plate sealer, spin 1000 rpm for 1 min, Incubate overnight at room temperature; Read on BMG PheraStar with HTRF protocol (337 nm-665 nm-620 nm).
The inhibition (degradation) percentage of the compound was calculated by the following equation: Inhibition percentage of Compound=100-100×(Signal-low control)/(High control-low control), wherein signal=each test compound group
High control=Cell group with added DMSO and without compound, indicating microplate readings without EGFR degradation;
Dmax is the maximum percentage of inhibition (degradation).
The IC50 (DC50) value of a compound can be obtained by fitting the following equation
Y=Bottom+(TOP−Bottom)/(1+((IC50/X)^hillslope))
Wherein, X and Y are known values, and IC50, Hillslope, Top and Bottom are the parameters obtained by fitting with software. Y is the inhibition percentage (calculated from the equation), X is the concentration of the compound; IC50 is the concentration of the compound when the 50% inhibition is reached. The smaller the IC50 value is, the stronger the inhibitory ability of the compound is. Vice versa, the higher the IC50 value is, the weaker the inhibitory ability of the compound is; Hillslope represents the slope of the fitted curve, generally around 1*; Bottom represents the minimum value of the curve obtained by data fitting, which is generally 0%±20%; Top represents the maximum value of the curve obtained by data fitting, which is generally 100%±20%. The experimental data were fitted by calculating and analyzing with Dotmatics data analysis software.
Background: TR-FRET usually uses a lanthanide donor and a delayed reading to cut background.

T1 sequence (P00533 with tags, fused parts or gaps DEL746-750): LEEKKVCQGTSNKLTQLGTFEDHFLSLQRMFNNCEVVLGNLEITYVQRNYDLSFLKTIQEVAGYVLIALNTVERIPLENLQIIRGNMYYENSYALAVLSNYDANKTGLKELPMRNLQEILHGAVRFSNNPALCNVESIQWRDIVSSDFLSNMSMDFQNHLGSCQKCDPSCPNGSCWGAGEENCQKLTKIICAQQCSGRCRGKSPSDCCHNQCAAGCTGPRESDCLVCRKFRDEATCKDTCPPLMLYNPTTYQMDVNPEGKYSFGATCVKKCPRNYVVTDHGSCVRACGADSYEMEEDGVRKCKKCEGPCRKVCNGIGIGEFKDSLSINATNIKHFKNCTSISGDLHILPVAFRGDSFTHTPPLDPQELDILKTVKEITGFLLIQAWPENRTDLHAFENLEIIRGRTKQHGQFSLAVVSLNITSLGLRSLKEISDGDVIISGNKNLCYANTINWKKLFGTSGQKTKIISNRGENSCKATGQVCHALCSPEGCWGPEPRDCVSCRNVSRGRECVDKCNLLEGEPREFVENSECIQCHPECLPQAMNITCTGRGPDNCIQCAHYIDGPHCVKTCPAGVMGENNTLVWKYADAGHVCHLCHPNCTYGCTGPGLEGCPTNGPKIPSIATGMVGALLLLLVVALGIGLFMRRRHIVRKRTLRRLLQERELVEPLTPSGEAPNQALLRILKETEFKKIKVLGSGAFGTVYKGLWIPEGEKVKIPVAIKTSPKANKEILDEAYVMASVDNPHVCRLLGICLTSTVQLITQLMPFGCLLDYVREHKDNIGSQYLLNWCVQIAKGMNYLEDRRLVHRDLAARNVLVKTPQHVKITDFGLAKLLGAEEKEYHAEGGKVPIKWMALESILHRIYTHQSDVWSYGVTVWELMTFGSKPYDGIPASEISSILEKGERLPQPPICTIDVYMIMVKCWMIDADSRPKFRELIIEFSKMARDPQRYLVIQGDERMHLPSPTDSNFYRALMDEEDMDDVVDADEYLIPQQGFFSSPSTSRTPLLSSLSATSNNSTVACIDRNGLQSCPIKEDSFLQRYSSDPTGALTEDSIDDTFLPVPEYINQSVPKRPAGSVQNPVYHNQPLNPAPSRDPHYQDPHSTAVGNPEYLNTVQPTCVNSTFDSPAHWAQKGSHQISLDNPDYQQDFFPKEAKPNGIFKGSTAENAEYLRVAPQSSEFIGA

For orientation: DC50 means the concentration at which degradation of the target reaches its halfway point. In general, Dmax refers to the largest share of the target that was removed. In turn, `CCc1cc(Nc2ncc(Br)c(Nc3ccc4nccnc4c3P(C)(C)=O)n2)c(OC)cc1N1CCC(N2CCN(C(=O)CCCCN3CCN(c4ccc5c(c4)C(=O)N(C4CCC(=O)NC4=O)C5=O)CC3)CC2)CC1` (centres unmarked) [Example 62, 5-(4-(5-(4-(1-(4-((5-bromo-4-((5-(dimethylphosphoryl)quinoxalin-6-yl)amino)pyrimidin-2-yl)amino)-2-ethyl-5-methoxyphenyl)piperidin-4-yl)piperazin-1-yl)-5-oxopentyl)piperazin-1-yl)-2-(2,6-dioxopiperidin-3-yl)isoindoline-1,3-dione] came in with a DC50 of 6.24 nM and a Dmax of 83.7%.
For `COc1cc(N2CCC(N3CCN(CCc4ccc(N5CCC(=O)NC5=O)cc4)CC3)CC2)ccc1Nc1ncc(Cl)c(Nc2ccccc2N(C)S(C)(=O)=O)n1` [Example 124, N-(2-((5-chloro-2-((4-(4-(4-(4-(2,4-dioxotetrahydropyrimidin-1(2H)-yl)phenethyl)piperazin-1-yl)piperidin-1-yl)-2-methoxyphenyl)amino)pyrimidin-4-yl)amino)phenyl)-N-methylmethanesulfonamide], in that order: 81.6 nM and 80.8%.
For `COc1cc(N2CCC(N3CCN(C(=O)C4CCN(CC5CCN(c6ccc7c(c6)C(=O)N(C6CCC(=O)NC6=O)C7=O)CC5)CC4)CC3)CC2)ccc1Nc1ncc(Cl)c(Nc2ccccc2NS(C)(=O)=O)n1` (centres unmarked) [Example 142, N-(2-((5-chloro-2-((4-(4-(4-(1-((1-(2-(2,6-dioxopiperidin-3-yl)-1,3-dioxoisoindolin-5-yl)piperidin-4-yl)methyl)piperidine-4-carbonyl)piperazin-1-yl)piperidin-1-yl)-2-methoxyphenyl)amino)pyrimidin-4-yl)amino)phenyl)methanesulfonamide], in that order: 6.22 nM and 89.4%.
For `CN(c1ccccc1Nc1nc(Nc2ccc(N3CC4(CN(CCc5ccc(C6CCC(=O)NC6=O)cc5)C4)C3)c(F)c2)ncc1Cl)S(C)(=O)=O` (centres unmarked) [Example 134, N-(2-((5-chloro-2-((4-(6-(4-(2,6-dioxopiperidin-3-yl)phenethyl)-2,6-diazaspiro[3.3]heptan-2-yl)-3-fluorophenyl)amino)pyrimidin-4-yl)amino)phenyl)-N-methylmethanesulfonamide], in that order: 38 nM and 77.6%.
Take `CCc1cc(Nc2ncc(Br)c(Nc3ccc4nccnc4c3P(C)(C)=O)n2)c(OC)cc1N1CCC(N2CCN(CCCOc3ccc(C4CCC(=O)NC4=O)cc3)CC2)CC1` (centres unmarked) [Example 18, 3-(4-(3-(4-(1-(4-((5-bromo-4-((5-(dimethylphosphoryl)quinoxalin-6-yl)amino)pyrimidin-2-yl)amino)-2-ethyl-5-methoxyphenyl)piperidin-4-yl)piperazin-1-yl)propoxy)phenyl)piperidine-2,6-dione]: the DC50 was found to be 15.4 nM and the Dmax came to 77.5%.
As for `COc1cc(N2CCN(CCc3ccc(C4CCC(=O)NC4=O)cn3)CC2)c(C)cc1Nc1ncc(Br)c(Nc2ccc3nccnc3c2P(C)(C)=O)n1` (centres unmarked) [Example 87, 3-(6-(2-(4-(4-((5-bromo-4-((5-(dimethylphosphoryl)quinoxalin-6-yl)amino)pyrimidin-2-yl)amino)-5-methoxy-2-methylphenyl)piperazin-1-yl)ethyl)pyridin-3-yl)piperidine-2,6-dione], the DC50 was 57.5 nM and the Dmax is 86.2%.
The like results for `COc1cc(N2CCC(N3CCN(C(=O)CN4CCN(c5ccc6c(c5)C(=O)N(C5CCC(=O)NC5=O)C6)CC4)CC3)CC2)ccc1Nc1ncc(Cl)c(Nc2ccccc2N(C)S(C)(=O)=O)n1` (centres unmarked) [Example 130, N-(2-((5-chloro-2-((4-(4-(4-(2-(4-(2-(2,6-dioxopiperidin-3-yl)-3-oxoisoindolin-5-yl)piperazin-1-yl)acetyl)piperazin-1-yl)piperidin-1-yl)-2-methoxyphenyl)amino)pyrimidin-4-yl)amino)phenyl)-N-methylmethanesulfonamide] were, in that order, 45.8 nM and 80.8%.
The like results for `COc1cc(N2CCC(N(C)CCOc3ccc(C4CCC(=O)NC4=O)cc3)CC2)c(C)cc1Nc1ncc(Br)c(Nc2ccc3nccnc3c2P(C)(C)=O)n1` (centres unmarked) [Example 76, 3-(4-(2-((1-(4-((5-bromo-4-((5-(dimethylphosphoryl)quinoxalin-6-yl)amino)pyrimidin-2-yl)amino)-5-methoxy-2-methylphenyl)piperidin-4-yl)(methyl)amino)ethoxy)phenyl)piperidine-2,6-dione] were, in that order, 30.5 nM and 77.1%.
For `COc1cc(N2CCN(CCOc3ccc(C4CCC(=O)NC4=O)cc3)CC2)c(C)cc1Nc1ncc(Br)c(Nc2ccc3nccnc3c2P(C)(C)=O)n1` (centres unmarked) [Example 91, 3-(4-(2-(4-(4-((5-bromo-4-((5-(dimethylphosphoryl)quinoxalin-6-yl)amino)pyrimidin-2-yl)amino)-5-methoxy-2-methylphenyl)piperazin-1-yl)ethoxy)phenyl)piperidine-2,6-dione], in that order: 90.4 nM and 73.5%.
The compound `COc1cc(N2CCC(NCCCCCc3ccc(C4CCC(=O)NC4=O)cc3)CC2)ccc1Nc1ncc(Cl)c(Nc2ccccc2N(C)S(C)(=O)=O)n1` (centres unmarked) [Example 131, N-(2-((5-chloro-2-((4-(4-((5-(4-(2,6-dioxopiperidin-3-yl)phenyl)pentyl)amino)piperidin-1-yl)-2-methoxyphenyl)amino)pyrimidin-4-yl)amino)phenyl)-N-methylmethanesulfonamide] gave a DC50 of 68.3 nM and a Dmax of 80.1%.
For `COc1cc(N2CCN(CCC3CCN(c4ccc(N5CCC(=O)NC5=O)cc4)CC3)CC2)c(C)cc1Nc1ncc(Br)c(Nc2ccc3nccnc3c2P(C)(C)=O)n1` [Example 94, 1-(4-(4-(2-(4-(4-((5-bromo-4-((5-(dimethylphosphoryl)quinoxalin-6-yl)amino)pyrimidin-2-yl)amino)-5-methoxy-2-methylphenyl)piperazin-1-yl)ethyl)piperidin-1-yl)phenyl)dihydropyrimidine-2,4(1H,3H)-dione], in that order: 32.2 nM and 58.5%.
The like results for `COc1cc(N2CCN(CCc3ccc(C4CCC(=O)NC4=O)cc3)CC2)ccc1Nc1ncc(Cl)c(Nc2ccccc2N(C)S(C)(=O)=O)n1` (centres unmarked) [Example 133, N-(2-((5-chloro-2-((4-(4-(4-(2,6-dioxopiperidin-3-yl)phenethyl)piperazin-1-yl)-2-methoxyphenyl)amino)pyrimidin-4-yl)amino)phenyl)-N-methylmethanesulfonamide] were, in that order, 39.1 nM and 78.2%.
In turn, `COc1cc(N2CCC(N3CCN(C(=O)CCCCN4CCN(c5ccc6c(c5)C(=O)N(C5CCC(=O)NC5=O)C6=O)CC4)CC3)CC2)ccc1Nc1ncc(Cl)c(Nc2ccccc2P(C)(C)=O)n1` (centres unmarked) [Example 114, 5-(4-(5-(4-(1-(4-((5-chloro-4-((2-(dimethylphosphoryl)phenyl)amino)pyrimidin-2-yl)amino)-3-methoxyphenyl)piperidin-4-yl)piperazin-1-yl)-5-oxopentyl)piperazin-1-yl)-2-(2,6-dioxopiperidin-3-yl)isoindoline-1,3-dione] had a DC50 of 8.23 nM and a Dmax of 82.4%.
